# According to the supplement of paper PMC10307832:
# Legend:
# Experiment in all cases: relative viability (nuclei count vs DMSO), 5 days (fraction); higher = more cells survive
# Trametinib + Luminespib = compound: CC(=O)Nc1cccc(-n2c(=O)n(C3CC3)c(=O)c3c(Nc4ccc(I)cc4F)n(C)c(=O)c(C)c32)c1 [Trametinib] + CCNC(=O)c1noc(-c2cc(C(C)C)c(O)cc2O)c1-c1ccc(CN2CCOCC2)cc1 [Luminespib] (partner 0.01 µM)
# Method in brief: (§1)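 Values are medians from duplicate plates. Each reflects relative viability, defined as the nuclei count of treated wells over that of vehicle wells. Lung cancer cell lines in 1536-well plates were pin-tool dosed one day after seeding with one drug alone or with a fixed anchor-drug dose plus five library-drug doses (not always all listed) in √10 steps, then fixed, stained and imaged at 4× after 5 days.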
# [1] = compound: CN1C=C(C2=CC=CC=C21)/C=C\3/C4=C(C=CC=N4)NC3=O + CC(=O)c1c(C)c2cnc(Nc3ccc(N4CCNCC4)cn3)nc2n(C2CCCC2)c1=O [Palbociclib] (partner 0.5 µM)
# Method in brief: as §1
# [2] = compound: CN1C=C(C2=CC=CC=C21)/C=C\3/C4=C(C=CC=N4)NC3=O + O=C(CCCCCCC(=O)Nc1ccccc1)NO [Vorinostat] (partner 1 µM)
# Method in brief: as §1
# [3] = compound: CN1C=C(C2=CC=CC=C21)/C=C\3/C4=C(C=CC=N4)NC3=O + NC(=O)Nc1cc(-c2cccc(F)c2)sc1C(=O)N[C@H]1CCCNC1 [AZD7762] (partner 0.2 µM)
# Method in brief: as §1
Cell Line,relative viability (Trametinib + Luminespib; first compound 0.0025 µM),relative viability (Trametinib + Luminespib; first compound 0.007906 µM),relative viability (Trametinib + Luminespib; first compound 0.025 µM),relative viability (Trametinib + Luminespib; first compound 0.07906 µM),relative viability (Trametinib + Luminespib; first compound 0.25 µM),relative viability ([1]; first compound 0.02 µM),relative viability ([1]; first compound 0.06325 µM),relative viability ([1]; first compound 0.2 µM),relative viability ([1]; first compound 0.6325 µM),relative viability ([1]; first compound 2 µM),relative viability ([2]; first compound 0.02 µM),relative viability ([2]; first compound 0.06325 µM),relative viability ([2]; first compound 0.2 µM),relative viability ([2]; first compound 0.6325 µM),relative viability ([2]; first compound 2 µM),relative viability ([3]; first compound 0.02 µM),relative viability ([3]; first compound 0.06325 µM),relative viability ([3]; first compound 0.2 µM),relative viability ([3]; first compound 0.6325 µM),relative viability ([3]; first compound 2 µM)
NCI-H661,0.914,0.917,0.888,0.702,0.641,0.425,0.406,0.343,0.389,0.37,0.853,0.763,0.835,0.927,0.775,,,,,
CAL-12T,0.725,0.29,0.344,0.309,0.239,0.501,0.411,0.411,0.419,0.499,0.652,0.675,0.703,0.873,0.679,0.586,0.612,0.623,0.643,0.612
HARA,0.75,0.534,0.694,0.234,0.13,0.257,0.297,0.192,0.257,0.227,0.511,0.524,0.531,0.491,0.5,0.197,0.368,,0.358,0.345
NCI-H596,0.901,0.775,0.65,0.727,0.523,,,,,,0.642,0.653,0.484,0.589,0.595,1,1.04,0.92,1,1.21
LU99A,0.297,0.241,0.187,0.189,0.151,0.374,0.417,0.393,0.381,0.432,0.475,0.401,0.508,0.492,0.477,0.372,0.435,0.345,0.331,0.377
LC-2-ad,0.975,0.951,1,0.71,0.447,0.527,0.468,0.506,0.462,0.47,0.67,0.661,0.666,0.706,0.669,0.836,0.835,0.754,0.821,0.861
NCI-H1650,0.209,0.2,0.176,0.174,0.211,0.299,0.274,0.267,0.299,0.353,0.548,0.532,0.566,0.549,0.554,,,,,
NCI-H1915,0.823,0.55,0.297,0.204,0.123,0.489,0.511,0.533,0.598,0.721,0.502,0.501,0.513,0.442,0.493,0.678,0.646,0.529,0.751,0.699
ABC-1,0.665,0.819,0.446,0.307,0.439,0.52,0.76,0.789,0.593,0.738,1.29,0.899,0.926,1.05,0.834,0.889,,,0.708,0.874
HCC-44,1.03,0.907,0.931,0.553,0.193,0.902,0.959,0.956,0.934,0.913,1.03,1.09,1.1,1.12,1.02,0.937,1.02,0.94,1,0.956
HCC-78,,,,,,0.356,0.426,0.364,0.48,0.437,0.431,0.46,0.381,0.424,0.427,0.502,0.546,0.6,0.608,0.348
LXF-289,0.616,0.642,0.507,0.491,0.351,0.589,0.593,0.626,0.656,0.775,0.693,0.828,0.689,0.817,0.801,1.14,1.16,0.975,1.21,1.1
201T,1.08,0.866,0.856,0.852,0.8,0.321,0.359,0.377,0.35,0.323,1.04,0.879,1.03,1.04,1.05,0.578,0.662,0.761,0.668,0.658
NCI-H1734,0.208,0.169,0.173,0.149,0.15,0.316,0.372,,0.334,0.345,0.73,0.712,,0.796,0.747,0.521,0.537,,0.546,0.559
NCI-H1623,0.593,0.406,0.315,0.287,0.344,,,,,,,,,,,,,,,
NCI-H2126,0.871,0.754,0.509,0.731,0.564,0.325,0.31,0.348,0.319,0.326,0.876,0.719,0.744,0.748,0.802,1.01,0.899,0.864,1,1
LOU-NH91,0.348,0.365,0.278,0.305,0.279,0.427,0.524,0.512,0.506,0.51,0.816,0.851,0.789,0.809,0.848,0.684,0.641,0.402,0.664,0.764
NCI-H1792,0.399,0.348,0.294,0.286,0.238,0.624,0.679,0.656,,0.559,,,,,,0.943,0.702,0.376,0.518,0.693
NCI-H1651,0.866,0.736,0.749,0.791,0.654,0.563,0.492,0.554,0.5,0.542,0.656,0.573,0.571,0.563,0.537,0.497,0.455,0.433,0.557,0.477
HCC-366,,,,,,0.239,0.281,0.338,0.397,0.304,0.239,0.32,0.28,0.226,0.174,0.29,0.278,0.0805,0.178,0.24

Cell Line,relative viability (Trametinib + Luminespib; first compound 0.0025 µM),relative viability (Trametinib + Luminespib; first compound 0.007906 µM),relative viability (Trametinib + Luminespib; first compound 0.025 µM),relative viability (Trametinib + Luminespib; first compound 0.07906 µM),relative viability (Trametinib + Luminespib; first compound 0.25 µM),relative viability ([1]; first compound 0.02 µM),relative viability ([1]; first compound 0.06325 µM),relative viability ([1]; first compound 0.2 µM),relative viability ([1]; first compound 0.6325 µM),relative viability ([1]; first compound 2 µM),relative viability ([2]; first compound 0.02 µM),relative viability ([2]; first compound 0.06325 µM),relative viability ([2]; first compound 0.2 µM),relative viability ([2]; first compound 0.6325 µM),relative viability ([2]; first compound 2 µM),relative viability ([3]; first compound 0.02 µM),relative viability ([3]; first compound 0.06325 µM),relative viability ([3]; first compound 0.2 µM),relative viability ([3]; first compound 0.6325 µM),relative viability ([3]; first compound 2 µM)
EKVX,0.864,0.767,0.331,0.446,0.351,0.323,,,0.273,0.732,0.537,0.627,0.641,0.631,0.638,0.676,,,0.644,0.607
NCI-H1993,0.74,0.693,0.749,0.528,0.578,0.606,0.594,0.656,0.455,1.19,0.837,0.736,0.647,0.622,0.6,0.704,0.666,0.671,0.698,0.626
NCI-H522,1.04,0.917,1,0.844,0.574,1.04,1.01,1.08,0.874,1.06,0.734,0.893,0.84,0.899,0.953,0.686,0.784,0.76,1.1,0.882
NCI-H1703,,,,,,,,,,,,,,,,0.107,0.138,0.118,0.112,0.14
NCI-H23,0.234,0.185,0.17,0.213,0.221,0.506,0.408,0.417,0.499,0.486,0.579,0.518,0.537,0.612,0.474,0.264,0.232,0.167,0.252,0.189
HCC-827,0.63,0.24,0.219,0.228,0.153,0.444,0.462,,0.475,0.5,0.721,0.87,,0.703,0.714,0.202,0.187,,0.246,0.215
PC-3 [JPC-3],0.656,0.574,0.385,0.405,0.396,0.535,0.521,0.545,0.562,0.515,0.831,0.798,0.75,0.612,0.589,0.811,0.801,0.752,0.819,0.701
IA-LM,,,,,,,,,,,1.07,1.2,1.04,,0.927,,,,,
NCI-H1648,,,,,,0.308,0.305,0.233,0.285,0.28,0.557,0.391,0.425,0.327,0.64,0.705,0.502,0.673,0.522,0.816
SK-LU-1,0.216,0.187,0.176,0.17,0.159,0.282,0.367,0.369,0.342,0.399,0.67,0.764,0.729,0.727,0.831,,,,,
NCI-H1563,0.515,0.481,0.505,0.476,0.569,,,,,,,,,,,,,,,
SW 1573,0.181,0.237,0.13,0.157,0.163,0.319,0.391,0.426,0.424,0.485,0.73,0.656,0.787,0.8,0.882,,,,,
NCI-H2009,1.03,0.623,0.406,0.26,0.315,0.189,0.198,0.202,0.198,0.201,0.69,0.671,0.748,0.766,0.683,,,,,
SK-MES-1,0.498,0.368,0.277,0.231,0.207,0.243,0.325,0.316,0.321,0.264,1.07,0.995,0.864,1.07,0.984,,,,,
NCI-H2228,0.15,0.0886,0.134,0.0863,0.112,0.744,0.572,0.394,0.769,0.906,0.85,0.646,0.503,0.704,0.508,,,,,
COR-L23,0.638,0.462,0.306,0.248,0.236,0.314,0.292,0.28,0.237,0.299,0.452,0.433,0.42,0.479,0.396,,,,,
NCI-H520,0.252,0.2,0.259,0.253,0.218,0.261,0.227,0.219,0.218,0.218,0.797,0.482,0.661,0.718,0.722,,,,,
COR-L 105,0.685,0.587,0.415,0.271,0.344,0.428,0.418,0.419,0.373,0.497,0.845,0.682,0.774,0.793,0.768,,,,,
NCI-H2023,0.582,0.403,0.51,0.575,0.197,0.412,0.369,,0.45,0.372,0.697,0.562,,0.56,0.502,,,,,
